The source of these data is publication PMC4933725, “Traxoprodil, a selective antagonist of the NR2B subunit of the NMDA receptor, potentiates the antidepressant-like effects of certain antidepressant drugs in the forced swim test in mice” (Metabolic Brain Disease, 2016).

Counter-ions that a name gives are not always drawn.

For series [1], the system named is mice. The series can be described thus: Spontaneous locomotor activity (Opto-Varimex-4 Auto-Track). Conditions: for Distance traveled: mean ± SEM; for effects on locomotor activity: administered either alone or combined together, doses of Table 2 (traxoprodil 10 and 20 mg/kg), two-way ANOVA. It counts as in vivo, Albino Swiss mice. How it is done: In order to avoid the risk of obtaining the false positive/negative effects in the FST caused by a possible influence of the tested drugs on the locomotor activity, spontaneous locomotor activity was measured using an animal activity meter Opto-Varimex-4 Auto-Track (Columbus Instruments, USA). The device consists of four transparent cages with a lid (43 × 43 × 32 cm), a set of four infrared emitters (each emitter has 16 laser beams), and four detectors monitoring animal movements. Each mouse was placed individually into the cage for 10 min. Spontaneous locomotor activity was evaluated between the 2nd and the 6th min, which corresponds with the time interval analyzed in the FST.
The results obtained in this test were presented as an arithmetic average distance (given in cm) traveled by a mouse ± SEM for each experimental group.

In series [2] the test system is mice. Description: Forced swim test (FST) in mice. It counts as in vivo, Albino Swiss mice. Conditions: for immobility time in FST vs control group: Fig. 1. How it is done: Each mouse was placed individually into a glass cylinder (height 25 cm, diameter 10 cm) containing 12–15 cm of water at 23–25 °C. The animal was left in the cylinder for 6 min. The total duration of immobility was recorded during the last 4 min of the 6-min testing period. The mouse was judged to be immobile when it ceased struggling and remained floating motionless in the water, making only the movements necessary to keep its head above the water level.

Series [3] is described as follows: Determination of antidepressants and traxoprodil in brains by HPLC. Particulars: for concentration at 60 min: Albino Swiss, mouse, brain, intraperitoneal; for concentration at 60 min / Antidepressants concentration in brain: 60 min before decapitation, mean ± SEM; for change of concentration in brain tissue after joint administration with traxoprodil: traxoprodil 10 mg/kg co-administered, Student's t-test vs drug + saline.
Description: Sixty minutes following administration of studied antidepressant drugs with or without traxoprodil, mice were decapitated to collect brains for pharmacokinetic studies. Immediately after the decapitation, the brains were dissected from the skull, washed with 0.9 % NaCl and frozen at −25 °C.
Brain concentrations of the studied antidepressants and traxoprodil were assayed by high performance liquid chromatography (HPLC) methods. The brains were homogenized in distilled water (1 : 4, w/v) with a tissue homogenizer TH220 (Omni International, Inc., Warrenton, VA, USA). For all studied antidepressant drugs, the extraction from brain homogenates were performed using the mixture of ethyl acetate : hexane (30 : 70, v/v). Amitriptyline (2 μg/ml) was used as an internal standard (IS) for imipramine and paroxetine (200 ng/ml) for fluoxetine and escitalopram. In order to isolate imipramine and its metabolite desipramine, to brain homogenate (0.5 ml) containing these drugs the IS was added and the samples were alkalized with 250 μl of 4 M NaOH. Then the samples were extracted with 5 ml of the extraction reagent by shaking for 20 min (IKA Vibrax VXR, Germany). After centrifugation at 3000 rpm for 20 min (Universal 32, Hettich, Germany), the organic layer was transferred to a new tube containing a 200 μl solution of 0.1 M H2SO4 and methanol (90 : 10, v/v), shaken for 0.5 h and then centrifuged for 15 min (3000 rpm). The organic layer was discarded and a 50 μl aliquot of the acidic solution was injected into the HPLC system. In the case of escitalopram, the procedure was similar with the exception that the extraction with an organic reagent was repeated two times, 1 ml of brain homogenate was used, and the volume of the acidic phase was 100 μl. In turn, to 1 ml of brain homogenates containing fluoxetine the IS was added and the samples were alkalized with 500 μl of 4 M NaOH. After the addition of 1 ml of the concentrated NaCl solution (10 g/50 ml), the samples were vortexed for 15 s and 5 ml of the extraction reagent was added. Then the samples were shaken for 20 min and centrifuged for 15 min at 3000 rpm. After the centrifugation, the organic layer was transferred into a conical glass tube and evaporated to dryness at 37 °C under a gentle stream of nitrogen in a water bath. The residue was dissolved with 100 μl of methanol and 50 μl of this solution was injected into the HPLC system.
The HPLC system (Thermo Separation Products, San Jose, CA, USA) consisted of a P100 isocratic pump, a UV100 variable-wavelength UV/VIS detector, a Rheodyne 7125 injector (Rheodyne, Cotati, CA, USA) with a 50 μl sample loop, and a Chromjet SP4400 computing integrator.
All analyses were performed on a 250 × 4.0 mm LiChrospher®100 RP-18 column with a particle size of 5 μm (Merck, Darmstadt, Germany) protected with a guard column (4 × 4 mm) with the same packing material. The mobile phase consisting of 50 mM potassium dihydrogen phosphate buffer (pH = 4.5) and acetonitrile was mixed at a ratio of 60 : 40 (v/v) for imipramine and fluoxetine, and 65 : 35 (v/v) for escitalopram and run at 1 ml/min. Chromatographic analysis was carried out at 21 °C and the analytical wavelength of 227 nm for fluoxetine, 240 nm for escitalopram, and 214 nm for imipramine.
In order to determine traxoprodil concentrations in mice brain, to 1 ml of brain homogenate containing this compound 2 ml of methanol was added and the samples were briefly vortexed and then shaken vigorously for 10 min (IKA Vibrax VXR, Germany) to precipitate proteins. After centrifugation for 20 min at 3000 rpm the supernatant (2 ml) was transferred into a conical glass tube and evaporated to dryness at 45 °C under a gentle stream of nitrogen in a water bath. The residue was dissolved with 100 μl of methanol and 40 μl of this solution were injected into the HPLC system.

Series [4] concerns mice. More on the design: method as in Poleszak et al. [2013]. Particulars: ref Poleszak et al. [2013]; cited from earlier work.

For `CNCCC(Oc1ccc(C(F)(F)F)cc1)c1ccccc1` (centres unmarked) [fluoxetine, fluoxetine hydrochloride], the Distance traveled in the series with mice [1] (Table 2 (B): fluoxetine 5 mg/kg + saline i.p.) is reported as 667.8 ± 111.1 cm. Also, in the series on mice [1], the “effects on locomotor activity” value is listed as “no statistically significant effects”. Besides, the “immobility time in FST” value in the series on mice [2] (fluoxetine 5 mg/kg given alone i.p., Fig. 2b) is “no effect”.
Consider `N[C@@H](Cc1ccc(Cl)cc1)C(=O)O` (racemic) [p-CPA, p-chlorophenylalanine], for which, in the series on mice [1] (Table 2 (E): p-CPA 200 mg/kg i.p. once daily over three days + saline), the Distance traveled is 656.4 ± 107.4 cm. Besides, in the series with mice [1], the “effects on locomotor activity” value is “no statistically significant effects”. Further, the “immobility time in FST” value with mice [2] (p-CPA 200 mg/kg i.p. per 3 days, alone, Fig. 3a) is “no effect”.
For `Cc1nc2sccn2c(=O)c1CCN1CCC(=C(c2ccc(F)cc2)c2ccc(F)cc2)CC1` [ritanserin], the Distance traveled with mice [1] (Table 2 (G): ritanserin 4 mg/kg + saline i.p.) stood at 607.5 ± 79.78 cm. Besides, in the series with mice [1], the “effects on locomotor activity” value is on record as “no statistically significant effects”. In addition, the “immobility time in FST” value with mice [2] (ritanserin 4 mg/kg i.p. alone, Fig. 3c) is “no effect”.
In the case of `CCOc1ccccc1OC(c1ccccc1)C1CNCCO1` (centres unmarked) [reboxetine, reboxetine mesylate], the Distance traveled in the series on mice [1] (Table 2 (D): reboxetine 2.5 mg/kg + saline i.p.) came out at 566.1 ± 54.75 cm. In the series on mice [2] (reboxetine 2.5 mg/kg given alone i.p., Fig. 2d), the “immobility time in FST” value is on record as “no effect”.
For `C[C@@H]([C@@H](O)c1ccc(O)cc1)N1CCC(O)(c2ccccc2)CC1` [traxoprodil], the Distance traveled is 629.1 ± 79.29 cm in the series on mice [1] (Table 2 (A): traxoprodil 10 mg/kg + saline i.p.); 629.1 ± 79.29 cm with mice [1] (Table 2 (B): traxoprodil 10 mg/kg + saline i.p.); 986.8 ± 278.5 cm in the series on mice [1] (Table 2 (C): traxoprodil 10 mg/kg + saline i.p.); 629.1 ± 79.29 cm with mice [1] (Table 2 (D): traxoprodil 10 mg/kg + saline i.p.); 731.1 ± 145.1 cm in the series on mice [1] (Table 2 (E): traxoprodil 20 mg/kg + saline i.p.); 687.5 ± 71.45 cm in the series on mice [1] (Table 2 (F): traxoprodil 20 mg/kg + saline i.p.). Further, the Distance traveled in the series on mice [1] (Table 2 (G): traxoprodil 20 mg/kg + saline i.p.) turned out to be 687.5 ± 71.45 cm; in the series on mice [1] (traxoprodil 5 mg/kg i.p. 60 min before test, 2nd-6th min, n=8, Table 1), 915.0 ± 92.10 cm; in the series on mice [1] (traxoprodil 10 mg/kg i.p. 60 min before test, 2nd-6th min, n=8, Table 1) it was 738.5 ± 49.93 cm; in the series on mice [1] (traxoprodil 20 mg/kg i.p. 60 min before test, 2nd-6th min, n=8, Table 1), 912.0 ± 75.87 cm; in the series on mice [1] (traxoprodil 40 mg/kg i.p. 60 min before test, 2nd-6th min, n=8, Table 1), 789.1 ± 119.8 cm. Moreover, the “effects on locomotor activity” value in the series with mice [1] is recorded as “no statistically significant effects”. The “effect on locomotor activity versus control group” value in the series on mice [1] (all tested doses (5, 10, 20, and 40 mg/kg), one-way ANOVA) is recorded as “no statistically significant effect”. Also, the “FST effect compared with imipramine at an active dose” value with mice [2] (highest traxoprodil dose used (40 mg/kg) vs imipramine 30 mg/kg) is recorded as “effect similar to the action of imipramine”. Moreover, the “immobility time in FST vs control group” value in the series on mice [2] (traxoprodil 5 mg/kg i.p. 60 min before test) is “no statistically significant effect”; in the series on mice [2] (traxoprodil 10 mg/kg i.p. 60 min before test) it was “no statistically significant effect”; in the series on mice [2] (traxoprodil 20 mg/kg i.p. 60 min before test), “significantly reduced”; in the series with mice [2] (traxoprodil 40 mg/kg i.p. 60 min before test), “significantly reduced”. Moreover, the “immobility time in FST” value is reported as “no effect” with mice [2] (traxoprodil 10 mg/kg given alone i.p., Fig. 2a); “significantly reduced” in the series on mice [2] (traxoprodil 20 mg/kg i.p., WAY 100,635 experiment, Fig. 3b); “significantly reduced” with mice [2] (traxoprodil 20 mg/kg i.p., p-CPA experiment, Fig. 3a); “significantly reduced” in the series with mice [2] (traxoprodil 20 mg/kg i.p., ritanserin experiment, Fig. 3c). For the same compound, the concentration at 60 min was found to be 76.4 ± 13.5 ng/g in series [3] (10 mg/kg, Traxoprodil concentration in brain, traxoprodil 10 mg/kg + saline ip, n=7–8); 249 ± 49.2 ng/g in series [3] (Traxoprodil concentration in brain, traxoprodil 10 mg/kg + escitalopram 2 mg/kg ip); 151 ± 10.3 ng/g in series [3] (Traxoprodil concentration in brain, traxoprodil 10 mg/kg + fluoxetine 5 mg/kg ip); 119 ± 22.5 ng/g in series [3] (Traxoprodil concentration in brain, traxoprodil 10 mg/kg + imipramine 15 mg/kg ip). Also, the “change of traxoprodil concentration in brain” value in series [3] (joint administration with escitalopram vs traxoprodil group, t-test p < 0.01) is recorded as “significant increase”; in series [3] (joint administration with fluoxetine vs traxoprodil group, t-test p < 0.001) it was “significant increase”; in series [3] (joint administration with imipramine vs traxoprodil group, t-test p > 0.05), “No statistically significant changes”.
For `COc1ccccc1N1CCN(CCN(C(=O)C2CCCCC2)c2ccccn2)CC1` [WAY 100,635], the Distance traveled in the series with mice [1] (Table 2 (F): WAY 0.1 mg/kg + saline i.p.) is recorded as 639.0 ± 59.16 cm. Moreover, the “effects on locomotor activity” value with mice [1] was “no statistically significant effects”. In the series on mice [2] (WAY 100,635 0.1 mg/kg i.p. alone, Fig. 3b), the “immobility time in FST” value was “no effect”.
Consider `CN(C)CCC[C@@]1(c2ccc(F)cc2)OCc2cc(C#N)ccc21` [escitalopram, escitalopram oxalate], for which the Distance traveled in the series on mice [1] (Table 2 (C): escitalopram 2 mg/kg + saline i.p.) turned out to be 957.1 ± 174.1 cm. Moreover, in the series on mice [1], the “effects on locomotor activity” value is on record as “no statistically significant effects”. Besides, in the series on mice [2] (escitalopram 2 mg/kg given alone i.p., Fig. 2c), the “immobility time in FST” value is given as “no effect”. For the same compound, the concentration at 60 min in series [3] (2 mg/kg, Antidepressants concentration in brain, escitalopram 2 mg/kg + saline i.p., n=10) turned out to be 296 ± 17.7 ng/g; in series [3] (Antidepressants concentration in brain, escitalopram 2 mg/kg + traxoprodil 10 mg/kg i.p., n=10), 361 ± 20.5 ng/g. For the same compound, the “change of concentration in brain tissue after joint administration with traxoprodil” value in series [3] is given as “significant increase”.
For `CN(C)CCCN1c2ccccc2CCc2ccccc21` [imipramine, imipramine hydrochloride], the Distance traveled in the series on mice [1] (Table 2 (A): imipramine 15 mg/kg + saline i.p.) is reported as 492.3 ± 57.11 cm; with mice [1] (imipramine 30 mg/kg i.p. 60 min before test, 2nd-6th min, n=8, Table 1), 653.9 ± 99.38 cm. Besides, in the series with mice [1], the “effects on locomotor activity” value is “no statistically significant effects”. The “immobility time in FST” value in the series with mice [2] (imipramine 15 mg/kg given alone i.p., Fig. 2a) is on record as “no effect”. Besides, the concentration at 60 min in series [3] (15 mg/kg, Antidepressants concentration in brain, imipramine 15 mg/kg + saline i.p., n=10) was 2060 ± 253 ng/g; in series [3] (Antidepressants concentration in brain, imipramine 15 mg/kg + traxoprodil 10 mg/kg i.p., n=10), 3210 ± 374 ng/g.
Turning to `CNCCCN1c2ccccc2CCc2ccccc21` [desipramine], the “Antidepressants concentration in brain” value in series [3] (imipramine 15 mg/kg + saline i.p., n=10) was “(101.0 ± 19.86) ng/g”; in series [3] (imipramine 15 mg/kg + traxoprodil 10 mg/kg i.p., n=10), “(724.0 ± 109.0***) ng/g”. For the same compound, the “change of concentration in brain tissue after joint administration with traxoprodil” value in series [3] is given as “significant increase”.
With `CC(C(O)c1ccc(O)cc1)N1CCC(Cc2ccccc2)CC1` (centres unmarked) [ifenprodil], the “dose range with antidepressant effect in the FST” value in the series on mice [4] is 20 to 40 mg/kg.
